Experimental findings from patent US20230234943A1, “TREX1 INHIBITORS AND USES THEREOF” (Tempest Therapeutics, Inc., priority 2020, published 2023) are described below.

The structures appear in SMILES notation.

The assay concerns the target T1, Human TREX1 enzyme (amino acids 1-242) (Homo sapiens, UniProt Q9NSU2).
T1 construct: Human TREX1 enzyme (amino acids 1-242)
T1 sequence (Q9NSU2 1-242): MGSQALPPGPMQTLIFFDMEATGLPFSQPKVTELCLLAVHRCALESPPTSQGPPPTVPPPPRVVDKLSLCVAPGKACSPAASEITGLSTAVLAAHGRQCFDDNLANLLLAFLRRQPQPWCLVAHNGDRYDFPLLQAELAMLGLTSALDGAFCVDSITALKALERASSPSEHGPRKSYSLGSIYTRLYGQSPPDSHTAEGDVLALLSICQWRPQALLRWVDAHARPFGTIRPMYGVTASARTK
Nature of the assay: Human TREX1 enzymatic assay with dsDNA native oligonucleotide (Picogreen fluorescence). Type of assay: biochemical. As to conditions: 2 mM dithiothreitol in assay buffer; 50 nM dsDNA oligonucleotide; 30 min preincubation at 25° C.; read-out: TREX1/Human + DTT IC50 AVG. Here is the method:
Example A. Human TREX1 Enzymatic Assay with dsDNA Native Oligonucleotide
Human TREX1 enzyme (amino acids 1-242) was diluted in assay buffer (20 mM Tris pH 7.7, 5 mM MgCl2, 0.01% human serum albumin, 0.01% Brij™-35, 2 mM dithiothreitol) to a final concentration of 0.8 nM to 0.16 nM and added to a 96-well low-binding polypropylene plate. Test compounds were diluted in DMSO to 50× concentration (final DMSO concentration in reaction mixture of 2%) and added to the wells with a concentration ranging from 300 μM to 13 nM or 30 μM to 1.5 nM. The reaction mixtures were incubated for 30 minutes at 25° C. and a solution of annealed dsDNA oligonucleotide (5′-[…]-3′ and Comp: 5′-[…]-3′) was added to a final concentration of 50 nM. The reaction mixtures were incubated at 25° C. for 5-15 minutes and subsequently quenched by transferring part of the assay reaction to a solution of 100 mM ethylenediaminetetraacetic acid and 1:100 Picogreen™ (final concentration of […]) in a black plate with an opaque bottom. The fluorescence ([…]) was measured using a Molecular Devices SpectraMax plate reader. Wells containing oligonucleotide but no TREX1 enzyme were used as negative controls. Wells containing oligonucleotide, TREX1 enzyme, and DMSO were used as positive controls.
As to `COc1cc(-c2nc3ncccc3n2C2COC2)cc(O)c1O` [Example 36, 3-methoxy-5-(1-(oxetan-3-yl)-1H-imidazo[4,5-b]pyridin-2-yl)benzene-1,2-diol], the IC50 was above 100 µM.

As for `COc1cc(-c2nc3c(-c4ccccc4)ncnc3[nH]2)cc(O)c1O` [Example 37, 3-methoxy-5-(6-phenyl-9H-purin-8-yl)benzene-1,2-diol], the IC50 was above 100 µM.

Take `COc1cc(-c2nc3ccc(N4CCN(C)CC4)cc3n2C)cc(O)c1O` [Example 38, 3-methoxy-5-(1-methyl-6-(4-methylpiperazin-1-yl)-1H-benzo[d]imidazol-2-yl)benzene-1,2-diol]: the IC50 was above 100 µM.

As for `COc1cc(-c2nc3ccc(S(=O)(=O)Nc4ccccc4)cc3n2C2COC2)cc(O)c1O` [Example 39, 2-(3,4-dihydroxy-5-methoxyphenyl)-1-(oxetan-3-yl)-N-phenyl-1H-benzo[d]imidazole-6-sulfonamide], the IC50 was 10 to 100 µM.

`CC(C)COc1cc(-c2nc3cccnc3n2CC(C)C)cc(O)c1O` [Example 40, 3-isobutoxy-5-(3-isobutyl-3H-imidazo[4,5-b]pyridin-2-yl)benzene-1,2-diol]: the IC50 is above 100 µM.

As to `COc1cc(-c2nc3c(C)ncnc3[nH]2)cc(O)c1O` [Example 41, 3-methoxy-5-(6-methyl-9H-purin-8-yl)benzene-1,2-diol], the IC50 is above 100 µM.

In the case of `COc1cc(-c2nc3ccc(S(=O)(=O)Nc4ccccc4)cc3n2C(CO)CCl)cc(O)c1O` (stereo not shown) [Example 42, 1-(1-chloro-3-hydroxypropan-2-yl)-2-(3,4-dihydroxy-5-methoxyphenyl)-N-phenyl-1H-benzo[d]imidazole-6-sulfonamide], the IC50 was 10 to 100 µM.

For the molecule `COc1cc(-c2nc3ccncc3n2C2COC2)cc(O)c1O` [Example 43, 3-methoxy-5-(3-(oxetan-3-yl)-3H-imidazo[4,5-c]pyridin-2-yl)benzene-1,2-diol], the IC50 is 10 to 100 µM.

With `COc1cc(-c2nc3ccncc3n2C)cc(O)c1O` [Example 44, 3-methoxy-5-(3-methyl-3H-imidazo[4,5-c]pyridin-2-yl)benzene-1,2-diol], the IC50 is above 100 µM.

As for `COc1cc(-c2nc3cnccc3n2C)cc(O)c1O` [Example 45, 3-methoxy-5-(1-methyl-1H-imidazo[4,5-c]pyridin-2-yl)benzene-1,2-diol], the IC50 was above 100 µM.

For the molecule `COc1cc(-c2nc3cc(S(=O)(=O)Nc4ccccc4)ccc3n2C2COC2)cc(O)c1O` [Example 46, 2-(3,4-dihydroxy-5-methoxyphenyl)-1-(oxetan-3-yl)-N-phenyl-1H-benzo[d]imidazole-5-sulfonamide], the IC50 lay in the range of 10 to 100 µM.

`COc1cc(-c2nc3cnccc3n2C2COC2)cc(O)c1O` [Example 47, 3-methoxy-5-(1-(oxetan-3-yl)-1H-imidazo[4,5-c]pyridin-2-yl)benzene-1,2-diol]: the IC50 fell in the range of 10 to 100 µM.

In the case of `COc1cc(-c2nc3cc(N4CCCCC4)ccc3[nH]2)cc(O)c1O` [Example 48, 3-methoxy-5-(5-(piperidin-1-yl)-1H-benzo[d]imidazol-2-yl)benzene-1,2-diol], the IC50 is above 100 µM.

Take `COc1cc(-c2nc3cc(N4CCC(c5ccccc5)CC4)ccc3[nH]2)cc(O)c1O` [Example 49, 3-methoxy-5-(5-(4-phenylpiperidin-1-yl)-1H-benzo[d]imidazol-2-yl)benzene-1,2-diol]: the IC50 is above 100 µM.

As for `COc1cc(-c2nc3cc(N4CCN(S(C)(=O)=O)CC4)ccc3[nH]2)cc(O)c1O` [Example 50, 3-methoxy-5-(5-(4-(methylsulfonyl)piperazin-1-yl)-1H-benzo[d]imidazol-2-yl)benzene-1,2-diol], the IC50 is 1 to 10 µM.

For `COc1cc(-c2nc3ccc(N4CCN(C)CC4)cc3n2C2COC2)cc(O)c1O` [Example 51, 3-methoxy-5-(6-(4-methylpiperazin-1-yl)-1-(oxetan-3-yl)-1H-benzo[d]imidazol-2-yl)benzene-1,2-diol], the IC50 is above 100 µM.
